Source: patent publication US6809065B2, “Herbicide containing substituted pyrazole derivative as active ingredient” (SDS Biotech K.K., priority 2001, dated 2004)

How the values were obtained:
[1] = system: Chenopodium album; test: Upland field foliage treatment (Test Example 1); format: in vivo; settings: foliage treatment 14th day after sowing, wettable powder, 1 kg active ingredient per hectare, evaluated 21st day after application
Procedure, shortened: (§1)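 Foliar spray, 1 kg a.i./ha, wettable powder in water, applied 14 d post-sowing; seeds covered by ~1 cm upland soil. Index scoring at 21 d. Higher index = stronger weed control; for crops, lower index = greater safety.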

[2] = system: Digitaria adscendens; test: Upland field foliage treatment (Test Example 1); format: in vivo; settings: foliage treatment 14th day after sowing, wettable powder, 1 kg active ingredient per hectare, evaluated 21st day after application
Procedure, shortened: as §1

[3] = system: Setaria viridis; test: Upland field foliage treatment (Test Example 1); format: in vivo; settings: foliage treatment 14th day after sowing, wettable powder, 1 kg active ingredient per hectare, evaluated 21st day after application
Procedure, shortened: as §1

[4] = system: Stellaria media; test: Upland field foliage treatment (Test Example 1); format: in vivo; settings: foliage treatment 14th day after sowing, wettable powder, 1 kg active ingredient per hectare, evaluated 21st day after application
Procedure, shortened: as §1

[5] = system: soybean (Glycine max); test: Upland field foliage treatment (Test Example 1), crop; format: in vivo; settings: foliage treatment 14th day after sowing, 1 kg active ingredient per hectare, evaluated 21st day, lower index = higher safety
Procedure, shortened: as §1

[6] = system: wheat (Triticum aestivum); test: as above; format: in vivo; settings: foliage treatment 14th day after sowing, 1 kg active ingredient per hectare, evaluated 21st day, lower index = higher safety
Procedure, shortened: as §1

[7] = system: Chenopodium album; test: Upland soil treatment (Test Example 2); format: in vivo; settings: soil surface treatment next day after sowing, wettable powder, 1 kg active ingredient per hectare, evaluated 21st day after application
Procedure, shortened: (§2)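 Pre-emergence soil treatment: day after sowing, WP formulation diluted in water, applied uniformly to soil surface at 1 kg a.i./ha. Seeds sown ~1 cm deep in upland soil. Visual index read 21 d after application (weeds: high = effective; crop: low = safe).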

[8] = system: Digitaria adscendens; test: Upland soil treatment (Test Example 2); format: in vivo; settings: soil surface treatment next day after sowing, wettable powder, 1 kg active ingredient per hectare, evaluated 21st day after application
Procedure, shortened: as §2

[9] = system: Setaria viridis; test: Upland soil treatment (Test Example 2); format: in vivo; settings: soil surface treatment next day after sowing, wettable powder, 1 kg active ingredient per hectare, evaluated 21st day after application
Procedure, shortened: as §2

[10] = system: Stellaria media; test: Upland soil treatment (Test Example 2); format: in vivo; settings: soil surface treatment next day after sowing, wettable powder, 1 kg active ingredient per hectare, evaluated 21st day after application
Procedure, shortened: as §2

[11] = system: soybean (Glycine max); test: Upland soil treatment (Test Example 2), crop; format: in vivo; settings: soil surface treatment next day after sowing, 1 kg active ingredient per hectare, evaluated 21st day, lower index = higher safety
Procedure, shortened: as §2

[12] = system: wheat (Triticum aestivum); test: Upland soil treatment (Test Example 2), crop; format: in vivo; settings: soil surface treatment next day after sowing, 1 kg active ingredient per hectare, evaluated 21st day, lower index = higher safety
Procedure, shortened: as §2

[13] = system: Echinochloa spp.; test: Paddy field treatment (Test Example 3); format: in vivo, Echinochloa crusgalli; settings: paddy pot, submerged 4 cm, dropped on water surface 10th day after transplantation, 1 kg active ingredient per hectare, evaluated 21st day
Procedure, shortened: (§3)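 Paddy soil in pots was puddled and flooded to 4 cm, weeds were sown, and two-leaf Koshihikari rice was transplanted at 3 cm depth. Ten days after transplanting, wettable powder was applied onto the water surface at 1 kg active ingredient per hectare. Herbicidal effect was index-scored 21 days later.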

[14] = system: Ammannia multiflora; test: Paddy field treatment (Test Example 3); format: in vivo; settings: paddy pot, submerged 4 cm, dropped on water surface 10th day after transplantation, 1 kg active ingredient per hectare, evaluated 21st day
Procedure, shortened: as §3

[15] = system: Monochoria vaginalis; test: Paddy field treatment (Test Example 3); format: in vivo; settings: paddy pot, submerged 4 cm, dropped on water surface 10th day after transplantation, 1 kg active ingredient per hectare, evaluated 21st day
Procedure, shortened: as §3

[16] = system: Scirpus juncoides; test: Paddy field treatment (Test Example 3); format: in vivo; settings: paddy pot, submerged 4 cm, dropped on water surface 10th day after transplantation, 1 kg active ingredient per hectare, evaluated 21st day
Procedure, shortened: as §3

[17] = system: rice (Oryza sative, variety: Koshihikari); test: Paddy field treatment (Test Example 3), crop; format: in vivo, Oryza sativa; settings: transplanted rice two-leaf period, water surface treatment 10th day after transplantation, 1 kg active ingredient per hectare, evaluated 21st day, lower index = higher safety
Procedure, shortened: as §3

Row | SMILES | Herbicidal activity Chenopodium album [1] | Herbicidal activity Digitaria adscendens [2] | Herbicidal activity Setaria viridis [3] | Herbicidal activity Stellaria media [4] | Herbicidal activity Glycine max [5] | Herbicidal activity Triticum aestivum [6] | Herbicidal activity Chenopodium album [7] | Herbicidal activity Digitaria adscendens [8] | Herbicidal activity Setaria viridis [9] | Herbicidal activity Stellaria media [10] | Herbicidal activity Glycine max [11] | Herbicidal activity Triticum aestivum [12] | Herbicidal activity Echinochloa spp. [13] | Herbicidal activity Ammannia multiflora [14] | Herbicidal activity Monochoria vaginalis [15] | Herbicidal activity Scirpus juncoides [16] | Herbicidal activity Oryza sativa [17]
1 | COC=C(Cn1nc(-c2cccc(Cl)c2Cl)c(Cl)c1C)C(=O)OC [Compound 20] | 5 (herbicidal effect of not less than 90% by weight) | 4 (herbicidal effect of not less than 70% by weight and less than 90% by weight) | 4 (herbicidal effect of not less than 70% by weight and less than 90% by weight) | 5 (herbicidal effect of not less than 90% by weight) | 0 (herbicidal effect of not less than 0% by weight and less than 10% by weight) | 0 (herbicidal effect of not less than 0% by weight and less than 10% by weight) | 5 (herbicidal effect of not less than 90% by weight) | 4 (herbicidal effect of not less than 70% by weight and less than 90% by weight) | 4 (herbicidal effect of not less than 70% by weight and less than 90% by weight) | 4 (herbicidal effect of not less than 70% by weight and less than 90% by weight) | 0 (herbicidal effect of not less than 0% by weight and less than 10% by weight) | 0 (herbicidal effect of not less than 0% by weight and less than 10% by weight) | 4 (herbicidal effect of not less than 70% by weight and less than 90% by weight) | 5 (herbicidal effect of not less than 90% by weight) | 5 (herbicidal effect of not less than 90% by weight) | 4 (herbicidal effect of not less than 70% by weight and less than 90% by weight) | 0 (herbicidal effect of not less than 0% by weight and less than 10% by weight)
2 | COC=C(CCn1cc(C)c(-c2ccccc2)n1)C(=O)OC [Compound 47] | 4 (herbicidal effect of not less than 70% by weight and less than 90% by weight) | 3 (herbicidal effect of not less than 50% by weight and less than 70% by weight) | 3 (herbicidal effect of not less than 50% by weight and less than 70% by weight) | 4 (herbicidal effect of not less than 70% by weight and less than 90% by weight) | 0 (herbicidal effect of not less than 0% by weight and less than 10% by weight) | 0 (herbicidal effect of not less than 0% by weight and less than 10% by weight) | 4 (herbicidal effect of not less than 70% by weight and less than 90% by weight) | 4 (herbicidal effect of not less than 70% by weight and less than 90% by weight) | 4 (herbicidal effect of not less than 70% by weight and less than 90% by weight) | 3 (herbicidal effect of not less than 50% by weight and less than 70% by weight) | 0 (herbicidal effect of not less than 0% by weight and less than 10% by weight) | 0 (herbicidal effect of not less than 0% by weight and less than 10% by weight) | 3 (herbicidal effect of not less than 50% by weight and less than 70% by weight) | 2 (herbicidal effect of not less than 30% by weight and less than 50% by weight) | 2 (herbicidal effect of not less than 30% by weight and less than 50% by weight) | 3 (herbicidal effect of not less than 50% by weight and less than 70% by weight) | 0 (herbicidal effect of not less than 0% by weight and less than 10% by weight)
3 | CO/C=C(/C(=O)OC)n1nc(-c2cccc(Cl)c2)c(Cl)c1C [Control, reference compound] | 0 (herbicidal effect of not less than 0% by weight and less than 10% by weight) | 0 (herbicidal effect of not less than 0% by weight and less than 10% by weight) | 0 (herbicidal effect of not less than 0% by weight and less than 10% by weight) | 0 (herbicidal effect of not less than 0% by weight and less than 10% by weight) | 0 (herbicidal effect of not less than 0% by weight and less than 10% by weight) | 0 (herbicidal effect of not less than 0% by weight and less than 10% by weight) | 0 (herbicidal effect of not less than 0% by weight and less than 10% by weight) | 0 (herbicidal effect of not less than 0% by weight and less than 10% by weight) | 0 (herbicidal effect of not less than 0% by weight and less than 10% by weight) | 0 (herbicidal effect of not less than 0% by weight and less than 10% by weight) | 0 (herbicidal effect of not less than 0% by weight and less than 10% by weight) | 0 (herbicidal effect of not less than 0% by weight and less than 10% by weight) | 0 (herbicidal effect of not less than 0% by weight and less than 10% by weight) | 0 (herbicidal effect of not less than 0% by weight and less than 10% by weight) | 0 (herbicidal effect of not less than 0% by weight and less than 10% by weight) | 0 (herbicidal effect of not less than 0% by weight and less than 10% by weight) | 0 (herbicidal effect of not less than 0% by weight and less than 10% by weight)
4 | COC=C(Cn1nc(-c2ccccc2)cc1C)C(=O)OC [Compound 2] | 4 (herbicidal effect of not less than 70% by weight and less than 90% by weight) | 4 (herbicidal effect of not less than 70% by weight and less than 90% by weight) | 4 (herbicidal effect of not less than 70% by weight and less than 90% by weight) | 4 (herbicidal effect of not less than 70% by weight and less than 90% by weight) | 0 (herbicidal effect of not less than 0% by weight and less than 10% by weight) | 0 (herbicidal effect of not less than 0% by weight and less than 10% by weight) | 4 (herbicidal effect of not less than 70% by weight and less than 90% by weight) | 4 (herbicidal effect of not less than 70% by weight and less than 90% by weight) | 4 (herbicidal effect of not less than 70% by weight and less than 90% by weight) | 4 (herbicidal effect of not less than 70% by weight and less than 90% by weight) | 0 (herbicidal effect of not less than 0% by weight and less than 10% by weight) | 0 (herbicidal effect of not less than 0% by weight and less than 10% by weight) | 3 (herbicidal effect of not less than 50% by weight and less than 70% by weight) | 3 (herbicidal effect of not less than 50% by weight and less than 70% by weight) | 3 (herbicidal effect of not less than 50% by weight and less than 70% by weight) | 3 (herbicidal effect of not less than 50% by weight and less than 70% by weight) | 0 (herbicidal effect of not less than 0% by weight and less than 10% by weight)
